Experimental data: patent US20210069295A1, “GALECTINS CONTROL MTOR IN RESPONSE TO ENDOMEMBRANE DAMAGE AND PROVIDE A MECHANISM AND TARGET FOR THE TREATMENT OF AUTOPHAGY-RELATED DISEASES” (STC. UNM, priority 2017, published 2021)
Peptide text beside a SMILES is read from it.

Tests used:
mTOR [1] = test: mTOR activity in human peripheral blood monocyte derived macrophages; assay type: cell-based; conditions: 100 μM GPN, 1 h
Description: (§1) (A) Dose-response analysis of mTOR activity in HEK293T cells treated with glycyl-L-phenylalanine 2-naphththylamide (GPN) in full medium for 1 h. mTOR activity was monitored by inununoblotting analysis of S6K1 (T389) and ULK1 (S757) phosphorylation (phosphorylated S6K (T389) and ULK1 (S757) relative to total S6K and ULK1, respectively). (B) Analysis of mTOR activity (as in A) after GPN washout. HEK293T cells were treated with 100 μM GPN for 1 h followed by 1 h washout in full medium. Data, means±SEM (n=3), **p<0.01, ANOVA. (C) Analysis of mTOR activity (as in A) in HEK293T cells treated with increasing doses of silica in full medium for 1 h. (D) HEK293T cells were treated with lysosomal damaging agents (LLOMe, Leu-Leu-OMe) for 1 h in full medium and status of acidified organelles assessed by quantifying LysoTracker Red DND-99 puncta using automated high-content imaging and analysis (HC). […] Data, means±SEM, n≥3 independent experiments (500 primary objects counted per well; ≥5 wells/sample per each experiment), **p<0.01, ANOVA. […] Human peripheral blood monocyte derived macrophages were treated with 100 μM GPN in full medium or starved in EBSS for 1 h, and mTOR activity measured as in A. None-treated cells were as control (Ctrl). […] Data, means±SEM, n≥3 independent experiments (500 primary objects counted per well; ≥5 wells/sample per each experiment) **p<0.01, ANOVA. […]

mTOR [2] = test: mTOR localization relative to LAMP2-positive lysosomes (HC and confocal microscopy); assay type: cell-based
Description: (A) Dose-response analysis of mTOR activity in HEK293T cells treated with glycyl-L-phenylalanine 2-naphththylamide (GPN) in full medium for 1 h. mTOR activity was monitored by inununoblotting analysis of S6K1 (T389) and ULK1 (S757) phosphorylation (phosphorylated S6K (T389) and ULK1 (S757) relative to total S6K and ULK1, respectively). (B) Analysis of mTOR activity (as in A) after GPN washout. HEK293T cells were treated with 100 μM GPN for 1 h followed by 1 h washout in full medium. Data, means±SEM (n=3), **p<0.01, ANOVA. (C) Analysis of mTOR activity (as in A) in HEK293T cells treated with increasing doses of silica in full medium for 1 h. (D) HEK293T cells were treated with lysosomal damaging agents (LLOMe, Leu-Leu-OMe) for 1 h in full medium and status of acidified organelles assessed by quantifying LysoTracker Red DND-99 puncta using automated high-content imaging and analysis (HC). None-treated cells were as control (Ctrl). White masks, algorithm defined cell boundaries (primary objects); yellow masks, computer-identified LysoTracker Red puncta (target objects). Data, means±SEM, n≥3 independent experiments (500 primary objects counted per well; ≥5 wells/sample per each experiment), **p<0.01, ANOVA. (E) Analysis of mTOR activity in primary human macrophages treated with GPN. Human peripheral blood monocyte derived macrophages were treated with 100 μM GPN in full medium or starved in EBSS for 1 h, and mTOR activity measured as in A. None-treated cells were as control (Ctrl). (F) Quantification by HC of overlaps between mTOR and LAMP2 (representative images shown in FIG. S1D) in HeLa cells treated with lysosomal damaging agents for 1 h in full medium. Data, means±SEM, n≥3 independent experiments (500 primary objects counted per well; ≥5 wells/sample per each experiment) **p<0.01, ANOVA. (G) Immunofluorescence confocal microscopy visualization of mTOR localization relative to LAMP2-positive lysosomes. […] (H) Analysis of TFEB nuclear translocation in HeLa cells treated with 100 μM GPN in full medium for 1 h, and the nuclear translocation of TFEB was measured by HC (Nuclei, Hoechst 33342, blue pseudocolor; TFEB red fluorescence, Alexa-568). […] White masks, computer algorithm-defined cell boundaries (primary objects); pink masks, computer-identified nuclear TFEB based on the average intensity of Alexa-568 fluorescence. Data, means±SEM, n≥3 independent experiments (500 primary objects counted per well; ≥5 wells/sample per each experiment), **p<0.01, ANOVA. (I) HeLa cells were treated as indicated in full medium for 1 h, and LC3 puncta were quantified by HC. […] Data, means±SEM, n≥3 independent experiments (500 primary objects counted per well; ≥5 wells/sample per each experiment), **p<0.01, ANOVA. […]

TFEB = TFEB nuclear translocation by high-content microscopy in HeLa cells; assay type: cell-based; conditions: 1 h full medium
Description: as §1

[3] = system: bone marrow-derived macrophages (BMMs); test: LysoTracker Red DND-99 staining in bone marrow-derived macrophages (BMMs); assay type: cell-based, murine; conditions: GPN 400 μM or LLOMe, 1 h

NCC(=O)N[C@@H](Cc1ccccc1)C(=O)Nc1ccc2ccccc2c1 [GPN, glycyl-L-phenylalanine 2-naphththylamide] (HELM PEPTIDE1{G.F.[c1ccc2cc(N[*:1])ccc2c1]}$$$$V2.0)
mTOR activity in primary cells (mTOR [1]): confirmed
mTOR localization in cells expressing RagBQ99L (mTOR [2]; HEK293T stably expressing RagBQ99L, 100 μM GPN 1 h): remained on lysosomes
mTOR localization (lysosomes vs cytosol, overlap with LAMP2) (mTOR [2]; HeLa cells, 1 h full medium): translocated from lysosomes to the cytosol
TFEB nuclear translocation (TFEB): translocated to the nucleus from the cytoplasm
LysoTracker Red DND-99 staining in BMMs (lysosomal damage) [3]: reduced LysoTracker Red DND-99 staining
